One assay addresses CYP2D6 (Homo sapiens, UniProt P10635). Kind of assay: P450-Glo CYP2D6 Luc-IP assay.
Assay [1] has as its target T1, TDO in SW48 colorectal carcinoma cells (Homo sapiens, UniProt P48775).
T1 construct: Endogenous expression of TDO has been determined in a variety of cancer cell lines; host or cells: SW48 colorectal carcinoma cells
Kind of assay: Cell-based assay for TDO in SW48 colorectal carcinoma cells (NFK GreenScreen). The following applies: 18 hours with L-tryptophan, read-out: IC50 on TDO in cells.

In another assay the target is T2, Recombinant TDO (Homo sapiens, UniProt P48775).
T2 construct: Recombinant TDO (Seegers, N., et al.) and all other assay components were diluted in TDO reaction buffer
Put plainly: Biochemical assay for TDO (NFK GreenScreen). The following applies: 50 nM TDO, 200 μM L-tryptophan. An outline of the steps:
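Recombinant human TDO (50 nM) preincubated with compound 60 min at room temperature in 100 mM NaH2PO4 pH 7.0, 0.02% Tween-20, with ascorbic acid. Reaction then run 15 min with 200 μM L-tryptophan (final), 0.3% DMSO. NFK product detected by NFK Green fluorescence after 3 h at 37° C; IC50 derived.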

The next assay concerns the target CYP3A4 (Homo sapiens, UniProt P08684). Kind of assay: P450-Glo CYP3A4 luciferin isopropylacetal (Luc-IP) assay.

In US10689343B2, “Inhibitors of tryptophan 2,3-dioxygenase” (NETHERLANDS TRANSLATIONAL RESEARCH CENTER B.V., priority 2016, dated 2020) one finds IC50 data, which are given here for 26 compounds.

pIC50: −log10 of the molar value. Where “and” joins values, the source holds several entries; their conditions need not be identical. Identical values can stand only once.

The pIC50 is the IC50 on a negative log10 scale, so that one unit is a factor of ten.

T1 sequence (P48775 whole entry): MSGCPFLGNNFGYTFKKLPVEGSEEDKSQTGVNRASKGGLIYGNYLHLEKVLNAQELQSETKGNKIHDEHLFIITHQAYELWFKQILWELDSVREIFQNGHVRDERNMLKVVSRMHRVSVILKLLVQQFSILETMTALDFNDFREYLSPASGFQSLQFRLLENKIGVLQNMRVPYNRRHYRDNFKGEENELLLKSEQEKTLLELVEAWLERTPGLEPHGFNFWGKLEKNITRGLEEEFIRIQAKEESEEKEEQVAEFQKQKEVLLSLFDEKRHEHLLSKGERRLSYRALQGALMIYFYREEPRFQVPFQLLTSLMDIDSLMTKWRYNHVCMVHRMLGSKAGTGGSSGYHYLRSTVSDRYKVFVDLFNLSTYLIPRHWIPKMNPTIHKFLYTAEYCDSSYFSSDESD
T2 sequence (P48775 whole entry): as above
Sequence of CYP2D6 (P10635 whole entry): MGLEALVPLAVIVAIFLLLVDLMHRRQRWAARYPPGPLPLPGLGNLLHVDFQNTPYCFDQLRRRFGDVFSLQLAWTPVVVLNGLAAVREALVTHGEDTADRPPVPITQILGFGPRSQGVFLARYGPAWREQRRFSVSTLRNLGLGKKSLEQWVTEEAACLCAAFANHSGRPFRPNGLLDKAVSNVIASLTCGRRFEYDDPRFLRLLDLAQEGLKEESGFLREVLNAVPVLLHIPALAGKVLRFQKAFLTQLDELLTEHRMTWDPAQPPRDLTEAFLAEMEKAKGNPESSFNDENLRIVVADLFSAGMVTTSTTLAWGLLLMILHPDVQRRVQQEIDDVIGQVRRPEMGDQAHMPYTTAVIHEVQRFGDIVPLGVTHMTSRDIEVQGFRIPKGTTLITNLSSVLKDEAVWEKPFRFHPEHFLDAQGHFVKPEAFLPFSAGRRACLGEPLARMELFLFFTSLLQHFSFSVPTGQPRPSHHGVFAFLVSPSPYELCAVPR
Sequence of CYP3A4 (P08684 whole entry): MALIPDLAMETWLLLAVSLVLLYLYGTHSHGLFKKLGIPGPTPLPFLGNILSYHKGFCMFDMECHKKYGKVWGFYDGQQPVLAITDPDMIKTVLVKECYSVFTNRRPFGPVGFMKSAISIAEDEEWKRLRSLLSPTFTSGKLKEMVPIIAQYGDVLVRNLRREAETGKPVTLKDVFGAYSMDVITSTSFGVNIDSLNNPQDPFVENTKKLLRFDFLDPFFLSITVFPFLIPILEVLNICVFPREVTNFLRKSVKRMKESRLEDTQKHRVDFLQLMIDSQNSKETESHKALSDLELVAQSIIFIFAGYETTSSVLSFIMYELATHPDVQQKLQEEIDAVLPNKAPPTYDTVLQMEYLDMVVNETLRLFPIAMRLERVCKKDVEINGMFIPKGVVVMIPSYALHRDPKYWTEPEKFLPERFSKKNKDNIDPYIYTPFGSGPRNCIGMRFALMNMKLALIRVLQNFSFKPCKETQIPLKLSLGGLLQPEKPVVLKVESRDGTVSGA
Text for CYP3A4: To determine the inhibitory potency of compounds on CYP3A4 enzyme, the P450-Glo CYP3A4 luciferin isopropylacetal (Luc-IP) assay was used (Promega, Madison, Wis., USA, Cat. No. V9920). The assay makes use of a luminogenic isopropylacetal (IPA) substrate that is a derivative from beetle luciferin, a substrate of luciferase enzymes. The IPA substrate is converted by CYP3A4 to luciferin, which in turn reacts with luciferase to produce an amount of light that is directly proportional to the activity of CYP3A4. Compounds were serially diluted in DMSO and finally in 400 mM K2HPO4, pH 7.4. 5 μl of compound solution and 5 μl of CYP3A4/substrate solution were combined in the well of a white 384-well Optiplate (Perkin Elmer). The DMSO concentration in the assay was 0.1%. After incubation for 10 minutes at room temperature in the dark, 10 μl of NADPH regeneration system was added and incubation was continued for 10 min. Then, 20 μl of Luciferin Detection Reagent was added to stop the reaction, and incubation was continued for another 20 min. Luminescence was measured on an Envision multimode reader and IC50 values were calculated using XLfit™. […] Instead of in a 96-well plate, the assay was performed in 384-well white Perkin Elmer Optiplate (cat. no. 6007290).

Take `CN1CCCC(NC(=O)c2ccc(-c3c[nH]c4cc(F)ccc34)cc2Cl)C1` (centres unmarked) [Example 68, 2-Chloro-4-(6-fluoro-1H-indol-3-yl)-N-(1-methyl-3-piperidyl)benzamide]: the pIC50 at CYP2D6 is < 5.00; in assay [1], ≥ 6.70; on Recombinant TDO, > 6.00; on CYP3A4 it was 5.00 to 5.30.
In the case of `CN1CCC(NC(=O)c2ccc(-c3c[nH]c4cc(F)ccc34)cc2Cl)CC1` [Example 69, 2-Chloro-4-(6-fluoro-1H-indol-3-yl)-N-(1-methyl-4-piperidyl)benzamide], the pIC50 against CYP2D6 is < 5.00; in assay [1], ≥ 6.70; at Recombinant TDO, > 6.00; against CYP3A4, < 5.00.
Turning to `O=C(NCCN1CCCC1)c1ccc(-c2c[nH]c3cc(F)ccc23)cc1Cl` [Example 70, 2-Chloro-4-(6-fluoro-1H-indol-3-yl)-N-(2-pyrrolidin-1-ylethyl)benzamide], the negative logarithm of the IC50 (pIC50) is < 5.00 at CYP2D6, ≥ 6.70 in assay [1], > 6.00 at Recombinant TDO and 5.00 to 5.30 against CYP3A4.
Regarding `CC(N)CNC(=O)c1ccc(-c2c[nH]c3cc(F)ccc23)cc1Cl` (centres unmarked) [Example 71, N-(2-aminopropyl)-2-chloro-4-(6-fluoro-1H-indol-3-yl)benzamide], the pIC50 was < 5.00 against CYP2D6, ≥ 6.70 in assay [1], > 6.00 at Recombinant TDO and 5.00 to 5.30 at CYP3A4.
The matching figures for `CN1CCN(CCCNC(=O)c2ccc(-c3c[nH]c4cc(F)ccc34)cc2Cl)CC1` [Example 72, 2-Chloro-4-(6-fluoro-1H-indol-3-yl)-N-[3-(4-methylpiperazin-1-yl)propyl]benzamide]: 5.00 to 5.30, ≥ 6.70, > 6.00 and 5.00 to 5.30.
For the compound `CCN(CC)CC(C)NC(=O)c1ccc(-c2c[nH]c3cc(F)ccc23)cc1Cl` (centres unmarked) [Example 73, 2-Chloro-N-[2-(diethylamino)-1-methyl-ethyl]-4-(6-fluoro-1H-indol-3-yl)benzamide], the pIC50 on CYP2D6 is < 5.00; in assay [1] it was ≥ 6.70; on Recombinant TDO, > 6.00; against CYP3A4 it was < 5.00.
`O=C(N[C@@H]1CCNC[C@@H]1F)c1ccc(-c2c[nH]c3cc(F)ccc23)cc1` [Example 74, 4-(6-Fluoro-1H-indol-3-yl)-N-[(3S,4R)-3-fluoro-4-piperidyl]benzamide]: the pIC50 is < 5.00 on CYP2D6, ≥ 6.70 in assay [1], > 6.00 on Recombinant TDO and 5.00 to 5.30 against CYP3A4.
With `COc1cc(-c2c[nH]c3cc(F)ccc23)ccc1C(=O)N[C@H]1CCCNC1` [Example 75, 4-(6-Fluoro-1H-indol-3-yl)-2-methoxy-N-[(3S)-3-piperidyl]benzamide], the pIC50 at CYP2D6 was < 5.00; in assay [1], ≥ 6.70; on Recombinant TDO, > 6.00; on CYP3A4, 5.00 to 5.30.
Regarding `O=C(NCC1(F)CCNCC1)c1ccc(-c2c[nH]c3cc(F)ccc23)cc1` [Example 76, 4-(6-Fluoro-1H-indol-3-yl)-N-[(4-fluoro-4-piperidyl)methyl]benzamide], the negative-log IC50 (pIC50) is < 5.00 against CYP2D6, ≥ 6.70 in assay [1], > 6.00 at Recombinant TDO and < 5.00 against CYP3A4.
In the case of `O=C(NCCN1CCCC1)c1ccc(-c2c[nH]c3cc(F)ccc23)cc1` [Example 77, 4-(6-Fluoro-1H-indol-3-yl)-N-(2-pyrrolidin-1-ylethyl)benzamide], the pIC50 was < 5.00 at CYP2D6, ≥ 6.70 in assay [1], > 6.00 at Recombinant TDO and < 5.00 at CYP3A4.
Take `CN(C)CC(O)CNC(=O)c1ccc(-c2c[nH]c3cc(F)ccc23)cc1` (centres unmarked) [Example 78, N-[3-(dimethylamino)-2-hydroxy-propyl]-4-(6-fluoro-1H-indol-3-yl)benzamide]: the pIC50 was < 5.00 against CYP2D6, ≥ 6.70 in assay [1], > 6.00 at Recombinant TDO and < 5.00 against CYP3A4.
On to `CCN(CC)CC(C)NC(=O)c1ccc(-c2c[nH]c3cc(F)ccc23)cc1OC` (centres unmarked) [Example 79, N-[2-(diethylamino)-1-methyl-ethyl]-4-(6-fluoro-1H-indol-3-yl)-2-methoxy-benzamide], for which the negative logarithm of the IC50 (pIC50) against CYP2D6 was < 5.00; in assay [1] it was ≥ 6.70; at Recombinant TDO, > 6.00; against CYP3A4 it was < 5.00.
In the case of `CS(=O)(=O)CC(=O)Nc1ccc(-c2c[nH]c3cc(F)ccc23)cc1` [Example 80, N-[4-(6-fluoro-1H-indol-3-yl)phenyl]-2-methylsulfonyl-acetamide], the pIC50 is < 5.00 against CYP2D6, ≥ 6.70 in assay [1], 5.30 to 6.00 on Recombinant TDO and < 5.00 on CYP3A4.
Take `CC(CN(C)C)NC(=O)c1ccc(-c2c[nH]c3cc(F)ccc23)cc1Cl` (centres unmarked) [Example 82, 2-Chloro-N-[2-(dimethylamino)-1-methyl-ethyl]-4-(6-fluoro-1H-indol-3-yl)benzamide]: the pIC50 at CYP2D6 was < 5.00; in assay [1] it was ≥ 6.70; on Recombinant TDO it was > 6.00; against CYP3A4, 5.00 to 5.30.
The corresponding values for `O=C(NC1CCCNCC1)c1ccc(-c2c[nH]c3cc(F)ccc23)cc1` (centres unmarked) [Example 83, N-(azepan-4-yl)-4-(6-fluoro-1H-indol-3-yl)benzamide] are < 5.00, ≥ 6.70, > 6.00 and < 5.00.
Take `O=C(NC[C@@H]1CCCN1)c1ccc(-c2c[nH]c3cc(F)ccc23)cc1` [Example 84, 4-(6-Fluoro-1H-indol-3-yl)-N-[[(2S)-pyrrolidin-2-yl]methyl]benzamide]: the pIC50 against CYP2D6 is < 5.00; in assay [1], ≥ 6.70; on Recombinant TDO it was > 6.00; at CYP3A4, < 5.00.
In the case of `O=C(N[C@H]1CCC[C@@H]1O)c1ccc(-c2c[nH]c3cc(F)ccc23)cc1` [Example 87, 4-(6-Fluoro-1H-indol-3-yl)-N-[(1S,2S)-2-hydroxycyclopentyl]benzamide], the pIC50 was < 5.00 at CYP2D6; ≥ 6.30 and 6.30 to 6.70 in assay [1]; > 6.00 at Recombinant TDO; < 5.00 at CYP3A4.
Turning to `O=C(NN1CCOCC1)c1ccc(-c2c[nH]c3cc(F)ccc23)cc1` [Example 93, 4-(6-Fluoro-1H-indol-3-yl)-N-morpholino-benzamide], the negative logarithm of the IC50 (pIC50) is < 5.00 on CYP2D6; ≥ 6.30 and 6.30 to 6.70 in assay [1]; > 6.00 at Recombinant TDO; < 5.00 against CYP3A4.
Take `O=C(NC[C@H]1CCCNC1)c1ccc(-c2c[nH]c3cc(F)ccc23)cc1` [Example 94, 4-(6-Fluoro-1H-indol-3-yl)-N-[[(3S)-3-piperidyl]methyl]benzamide]: the pIC50 was < 5.00 at CYP2D6; ≥ 6.30 and 6.30 to 6.70 in assay [1]; > 6.00 on Recombinant TDO; 5.00 to 5.30 against CYP3A4.
Regarding `O=C(NC[C@@H]1CCNC1)c1ccc(-c2c[nH]c3cc(F)ccc23)cc1` [Example 95, 4-(6-Fluoro-1H-indol-3-yl)-N-[[(3R)-pyrrolidin-3-yl]methyl]benzamide], the negative-log IC50 (pIC50) at CYP2D6 was < 5.00; in assay [1], ≥ 6.30 and 6.30 to 6.70; at Recombinant TDO it was > 6.00; at CYP3A4, < 5.00.
On to `O=C(Nc1ccc(-c2c[nH]c3cc(F)ccc23)cc1)C1CC12CCNCC2` (centres unmarked) [Example 97, N-[4-(6-Fluoro-1H-indol-3-yl)phenyl]-6-azaspiro[2.5]octane-2-carboxamide], for which the pIC50 against CYP2D6 was < 5.00; in assay [1] it was ≥ 6.30 and 6.30 to 6.70; at Recombinant TDO, > 6.00; at CYP3A4, < 5.00.
Consider `O=C(Nc1ccc(-c2c[nH]c3cc(F)ccc23)cc1)C1[C@H]2COC[C@@H]12` (stereo partly drawn) [Example 100, (1R,5S)—N-[4-(6-fluoro-1H-indol-3-yl)phenyl]-3-oxabicyclo[3.1.0]hexane-6-carboxamide], for which the negative-log IC50 (pIC50) at CYP2D6 was < 5.00; in assay [1] it was ≥ 6.30 and 6.30 to 6.70; at Recombinant TDO, 5.30 to 6.00; on CYP3A4, < 5.00.
For `O=C(CC1CNCCO1)Nc1ccc(-c2c[nH]c3cc(F)ccc23)cc1` (centres unmarked) [Example 102, N-[4-(6-fluoro-1H-indol-3-yl)phenyl]-2-morpholin-2-yl-acetamide], the pIC50 against CYP2D6 is < 5.00; in assay [1], ≥ 6.30 and 6.30 to 6.70; on Recombinant TDO, > 6.00; on CYP3A4, 5.00 to 5.30.
For the compound `N[C@H]1CCC[C@@H](C(=O)Nc2ccc(-c3c[nH]c4cc(F)ccc34)cc2)C1` [Example 103, (1R,3S)-3-amino-N-[4-(6-fluoro-1H-indol-3-yl)phenyl]cyclohexanecarboxamide], the negative logarithm of the IC50 (pIC50) against CYP2D6 is < 5.00; in assay [1], ≥ 6.30 and 6.30 to 6.70; at Recombinant TDO it was > 6.00; against CYP3A4, < 5.00.
Regarding `O=C(Nc1ccc(-c2c[nH]c3cc(F)ccc23)cc1)C1C2CNCC21` (centres unmarked) [Example 104, N-[4-(6-fluoro-1H-indol-3-yl)phenyl]-3-azabicyclo[3.1.0]hexane-6-carboxamide], the pIC50 is < 5.00 at CYP2D6; ≥ 6.30 and 6.30 to 6.70 in assay [1]; > 6.00 at Recombinant TDO; 5.00 to 5.30 against CYP3A4.
As to `N[C@@H]1CCC[C@H](C(=O)Nc2ccc(-c3c[nH]c4cc(F)ccc34)cc2)C1` [Example 105, (1S,3R)-3-amino-N-[4-(6-fluoro-1H-indol-3-yl)phenyl]cyclohexanecarboxamide], the negative-log IC50 (pIC50) was < 5.00 on CYP2D6; ≥ 6.30 and 6.30 to 6.70 in assay [1]; > 6.00 at Recombinant TDO; < 5.00 against CYP3A4.
